According to ChEMBL document CHEMBL1147317, “Metachromin C, a new cytotoxic sesquiterpenoid from the Okinawan marine sponge Hippospongia metachromia” (J Nat Prod, 1989):
In brackets after ≈: the same amount, converted by molar mass.

What was measured:
L5178Y = experiment: Cytotoxicity against mouse L5178Y cells; assay type: functional, cell-based
L1210 = experiment: Cytotoxicity against mouse L1210 cells; assay type: functional, cell-based
[1] = Vasodilatory activity in rabbit coronary artery assessed as inhibition of KCl-induced contraction; assay type: functional, tissue-based, Oryctolagus cuniculus

IC50 [1]	SMILES	IC50 (L5178Y)	IC50 (L1210)
3000 nM	COC1=CC(=O)C(O)=C(C/C=C(\C)CC[C@@]2(C)CCC=C(C)[C@H]2C)C1=O [METACHROMIN C]	0.92 µg/mL (≈ 2.57 µM)	2 µg/mL (≈ 5.58 µM)
3000 nM	C=C1[C@H](C)CCC[C@]1(C)CC/C(C)=C/CC1=C(O)C(=O)C=C(OC)C1=O [METACHROMIN A]		
3000 nM	C=C1[C@H](C)CCC[C@]1(C)CC[C@@]1(C)C=Cc2c(O)c(OC)cc(OC)c2O1 [METACHROMIN B]		
